Source: article PMC9586306 (Proceedings of the National Academy of Sciences of the …, 2022)

Tests used:
[1] = target: A/California/04/2009 (H1N1) neuraminidase (09N1) (Influenza A virus (A/California/04/2009(H1N1)), UniProt C3W5S3); type: biochemical; settings: read-out: IC50 ± SEM
[2] = target: IBV NA (B/Singapore/222/1979) (Influenza B virus, UniProt P16203); type: biochemical, Influenza B virus B/Singapore/222/1979; settings: read-out: IC50 ± SEM
IBV NA (B/Singapore/222/1979), sequence (P16203 77-466 limits assumed): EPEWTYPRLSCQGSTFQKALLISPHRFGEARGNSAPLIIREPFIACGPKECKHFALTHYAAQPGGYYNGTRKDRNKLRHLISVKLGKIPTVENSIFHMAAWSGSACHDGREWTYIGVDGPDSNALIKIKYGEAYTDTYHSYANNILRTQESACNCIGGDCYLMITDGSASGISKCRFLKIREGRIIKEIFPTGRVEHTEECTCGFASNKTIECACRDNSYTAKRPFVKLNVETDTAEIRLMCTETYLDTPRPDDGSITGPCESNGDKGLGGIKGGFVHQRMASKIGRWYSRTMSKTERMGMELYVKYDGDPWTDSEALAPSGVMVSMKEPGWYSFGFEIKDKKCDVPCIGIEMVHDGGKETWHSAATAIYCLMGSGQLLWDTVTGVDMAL

SMILES: CCC(CC)[C@H](NC(C)=O)[C@@H]1[C@H](O)[C@@H](C(=O)O)C[C@H]1N=C(N)N [Peramivir, peramivir]
- IC50 [1]: 0.45 ± 0.08 nM
- IC50 [2]: 16.9 ± 1.94 nM
